The values that follow come from US10280171B2, “Heterocyclic inhibitors of PTPN11” (priority 2016, dated 2019).

For data set [1], the target named is PTPN11-E76K mutant enzyme (Homo sapiens (Human), UniProt Q06124, E76K). Put plainly: PTPN11 Enzymatic Assay (DiFMUP phosphatase activity). In kind it is biochemical. The note with it: full length PTPN11-E76K mutant enzyme 250 pM, DiFMUP 50 μM, 30 min preincubation; read-out: PTPN11-E76K Avg IC50. As to the method: Reaction was initiated by addition of DiFMUP (50 μM) at room temperature in 384-well black plate with a final reaction volume of 20 uL in assay buffer. […] Dose-response curves were analyzed using IC50 regression curve fitting (GeneData Screener). Curves were normalized to a high controls without inhibitor, and low controls without enzyme.
Chain of PTPN11-E76K mutant enzyme (Q06124 whole entry E76K): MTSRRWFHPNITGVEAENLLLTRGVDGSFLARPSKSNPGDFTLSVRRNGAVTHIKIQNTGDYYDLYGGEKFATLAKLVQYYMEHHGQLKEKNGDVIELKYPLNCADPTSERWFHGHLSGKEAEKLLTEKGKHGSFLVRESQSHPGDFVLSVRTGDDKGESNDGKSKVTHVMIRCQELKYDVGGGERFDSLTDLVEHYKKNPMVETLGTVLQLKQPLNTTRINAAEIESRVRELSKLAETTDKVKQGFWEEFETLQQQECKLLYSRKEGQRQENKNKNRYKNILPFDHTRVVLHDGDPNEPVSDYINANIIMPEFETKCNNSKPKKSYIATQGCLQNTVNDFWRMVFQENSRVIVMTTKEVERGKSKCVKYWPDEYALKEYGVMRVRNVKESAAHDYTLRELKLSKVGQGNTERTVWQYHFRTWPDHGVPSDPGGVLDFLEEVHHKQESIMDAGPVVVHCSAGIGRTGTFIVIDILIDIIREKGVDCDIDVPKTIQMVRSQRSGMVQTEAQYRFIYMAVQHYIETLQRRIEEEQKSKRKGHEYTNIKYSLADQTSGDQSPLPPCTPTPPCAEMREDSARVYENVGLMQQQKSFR

Data set [2] concerns Phospho-ERK levels in KYSE-520 cells. Nature of the data set: ERK Phosphorylation (Phospho-ERK) Target Engagement Assay (HTRF). Type of data set: cell-based. The note with it: Homo sapiens, 2 hr compound incubation, phospho-ERK1/2 HTRF kit, read-out: pERK target engagement assay Avg IC50. Here is the method:
KYSE-520 cells (10 k cells/well) are plated onto 384-well plate in 20 uL of medium (RPMI-1640, without phenol red, containing 10% FBS) and incubated at 37° C., 5% CO2 16 h. DMSO (control) or increasing concentrations of compounds are diluted in medium, added to the 384-well plate (10 uL/well, final DMSO concentration of 0.5-1%), and cells are then incubated with compounds for 2 hr. Phospho-ERK levels are measured using a TR-FRET based phospho-ERK1/2 HTRF kit (CisBio, 64ERKPEH) following manufacturer's recommendations, and fluorescence signal was measured at 665 nm and 620 nm using Synergy Neo plate reader. Dose-response curves were analyzed using IC50 regression curve fitting (GeneData Screener). Curves were normalized to a high controls without inhibitor, and low controls with 1 μM of selumetinib.

Data set [3] relates to BT474 human breast carcinomas cell line. Nature of the data set: In Vivo Tumor Models: BT474 xenograft. The note with it: BT474 (HER2+) xenograft in mouse, 100 mg/kg once per day oral gavage, 5 days on/2 days off, 4 weeks. The text has this: Xenografts were initiated with BT474 human breast carcinomas cell line and maintained by serial subcutaneous transplantation in CB-17/SCID mice (Charles River). On the day of tumor implant, each test mouse received a 1 mm^3 BT474 fragment implanted subcutaneously in the right flank, and tumor growth was monitored as the average size approached the target range of 100 to 150 mm3. About three weeks post-implantation, the animals were randomized and grouped based on tumor volume and mouse body weight. […] Tumors were measured in two dimensions using calipers, and volume was calculated using the formula: Tumor Volume (mm^3)=[…].
Results are found in FIGS. 1 and 2.

Usually IC50 stands for the concentration needed to halve the response being measured.

Consider `N[C@@H]1[C@H]2CN(c3cnc4c(-c5cccc(Cl)c5Cl)n[nH]c4n3)C[C@@H]12` [Example 3, (1R,5S,6S)-3-(3-(2,3-dichlorophenyl)-1H-pyrazolo[3,4-b]-pyrazin-6-yl)-3-aza-bicyclo[3.1.0]hexan-6-amine], for which the IC50 in data set [1] is 1070 nM; in data set [2] it was 322 nM.

As to `Clc1cccc(-c2n[nH]c3nc(N4CCC5(CCNC5)CC4)cnc23)c1Cl` [Example 2, 8-(3-(2,3-dichloro-phenyl)-1H-pyrazolo[3,4-b]-pyrazin-6-yl)-2,8-diazaspiro-[4.5]decane], the figures for the IC50 in data set [1] and in data set [2] were 787 nM and 169 nM, respectively.

For the compound `CNC1(C)CCN(c2cnc3c(-c4cccc(Cl)c4Cl)n[nH]c3n2)CC1` [Example 6, 1-(3-(2,3-Dichlorophenyl)-1H-pyrazolo[3,4-b]-pyrazin-6-yl)-N,4-dimethylpiperidin-4-amine], the concentration for half-maximal inhibition (IC50) in data set [1] is 2 nM; in data set [2], 124 nM.

With `CC1(N)CCN(c2cnc3c(-c4cccc(Cl)c4Cl)n[nH]c3n2)CC1` [Example 1, 1-(3-(2,3-dichlorophenyl)-1H-pyrazolo[3,4-b]pyrazin-6-yl)-4-methylpiperidin-4-amine], in data set [3], the “suppression of tumor growth” value is reported as “significant suppression of tumor growth” and the tolerability of dose entry is reported as “tolerated”. In addition, in data set [2], the IC50 amounted to 49 nM.
